Publication PMC11078746 (Nature, 2024)
Several values for one entry are separate records, joined by “and”; a condition that tells them apart may be missing. Equal entries are not always repeated.

How the values were obtained:
HCT116 cells = assay: Cell cycle analysis by flow cytometry; type: cell-based, human; details: 10 µM for 24 h
Method: About 2 × 10^6 cells were collected by trypsin and washed once with PBS. Cells were pelleted and fixed in 100 µl 4% formaldehyde (Sigma-Aldrich, 47608) for 15 min at room temperature. Cells were washed by centrifugation with an excess of 1× PBS. Pellets were resuspended in 100 µl 1× PBS, then 900 µl of ice-cold methanol (Sigma-Aldrich, 34860) was added drop by drop while vortexing. Cells were incubated for 10 min on ice to permeabilize them. Cells were washed by centrifugation with excess of 1× PBS, pellets were resuspended in 100 µl anti-phosphorylated-histone H3 Ser10 conjugated to PE (Cell Signalling Technology, 5764) antibodies diluted 1:50 in 0.5% BSA PBS buffer and incubated for 1 h at room temperature protected from the light. […] Stained cells were analysed on the Cytoflex flow cytometer (Beckman Coulter).
Data were collected in 10^5 particle units and analysed with CytExpert v.2.4 software. […] These singlets were then analysed for DAPI (DNA content) and PE (phosphorylated histone H3 Ser10) staining intensities. Data were analysed to show the percentage of nuclei in the G1, S and G2/M phases using the DAPI channel and the percentage of cells specifically in G2 or M phase using the PE channel.

TOV21G [1] = assay: CFA 10-14 day clonogenic assay; type: cell-based; details: Homo sapiens
SNGM = assay: CFA 10-14 day clonogenic assay; type: cell-based; details: Homo sapiens
HCT116 TP53 WT xenograft = assay: MSI xenograft model efficacy; type: in vivo, mouse; details: for Mean TVol / Tumour volume (TVol): HCT116 WT, 60 mpk; for Tumour volume (TVol): single mouse, 60 mg/kg
Method: (§1) All animal studies were conducted in accordance with ethics and procedures covered by permit BS-2275 and BS-1975 issued by the Kantonales Veterinäramt Basel-Stadt and in strict adherence to guidelines of the Eidgenössisches Tierschutzgesetz and the Eidgenössische Tierschutzverordnung, Switzerland. All animal studies were approved by the internal ethics committee. All animals had access to food and water ad libitum and were identified with transponders. They were housed in a specific-pathogen-free facility in IVC racks under a 12 h–12 h light–dark cycle. To establish cell-line-derived xenograft models, 6–7-week-old female athymic nude (Crl:NU(NCr)-Foxn1^nu) or SCID-BEIGE (CB17.Cg-PrkdcscidLystbg-J/Crl) mice from Charles River were engrafted subcutaneously with 5 million tumour cells in HBSS (H6648, Sigma-Aldrich). For SNU-407, Lovo, IM95, RL95.2, Ishikawa and IGROV-1, the cells were concentrated in 50% Matrigel (354234, Corning). Patient-derived xenografts were induced and expanded by transplantation as previously described. […] For the efficacy experiment, mice were randomized into groups (n = 5–6) for a mean tumour size of 100–150 mm^3. […] Blood samples were collected on day 7 and 91. […] Tumour responses are reported with the measures of tumour volumes from the treatment start. […] Animals were randomized (n = 3) and tumour samples were collected at 0, 1, 4, 8 and 24 h on the first day and then collected 4 h after the last treatment on day 3, 8, 10, 14 (including a 24 h timepoint), 17 and 21. Tumours were excised, weighed, either frozen in liquid nitrogen and cryogenic dry pulverized with the CryoPrep system (model CP-02, Covaris) or processed to FFPE after fixation. […] On day 12, blood samples were collected for PK analysis. On the last day (3 h after the last treatment), tumours were excised, weighed, frozen in liquid nitrogen and cryogenic dry pulverized for PD analysis.

SNU407 xenograft = assay: MSI xenograft model efficacy; type: in vivo, mouse; details: SNU407, colorectal carcinoma; 60 or 120 mg/kg
Method: as §1

SNU407 = assay: 4 day proliferation assay (CellTiter-Glo); details: Homo sapiens, SNU-407, 96 h, read-out: 4 day assay GI50
TOV21G [2] = assay: 4 day proliferation assay (CellTiter-Glo); details: Homo sapiens, 96 h, read-out: 4 day assay GI50

Question: Which cell cycle effect (HCT116 cells) does the source give for CCc1c(N2CCN(C(=O)c3ncnc(C)c3O)CC2)c(=O)n2nc(C3=CCOCC3)nc2n1CC(=O)Nc1ccc(C(F)(F)F)cc1Cl [HRO761] here?
Answer: The cell cycle effect was “potent G2 cell cycle arrest”.

Question: What about the GI50 (TOV21G [1]) of the same compound?
Answer: The GI50 was 1310 nM.

Question: What about the GI50 (SNGM) of the same compound?
Answer: The GI50 was 7290 nM.

Question: What about the Best average response (HCT116 TP53 WT xenograft; HCT116 P53 WT, colorectal carcinoma, 60 or 120 mg/kg) of the same compound?
Answer: The Best average response was -60.

Question: And the “Mean TVol” value (HCT116 TP53 WT xenograft; day 0)?
Answer: The value was 219.01 mm3.

Question: What about the “Tumour volume (TVol)” value (HCT116 TP53 WT xenograft; day 0 post 1st dose) of the same compound?
Answer: The value was 93.52 mm3 and 234.39 mm3 and 157.76 mm3 and 320.89 mm3 and 161.54 mm3 and 345.97 mm3.

Question: And the “Mean TVol” value (HCT116 TP53 WT xenograft; day 3)?
Answer: The value was 281.33 mm3.

Question: What about the “Tumour volume (TVol)” value (HCT116 TP53 WT xenograft; day 3) of the same compound?
Answer: Its value is 104.72 mm3 and 379.81 mm3 and 232.95 mm3 and 368.27 mm3 and 173.78 mm3 and 428.47 mm3.

Question: And the “Mean TVol” value (HCT116 TP53 WT xenograft; day 7)?
Answer: Its value is 242.31 mm3.

Question: What about the “Tumour volume (TVol)” value (HCT116 TP53 WT xenograft; day 7) of the same compound?
Answer: Its value is 103.44 mm3 and 369.23 mm3 and 158.31 mm3 and 312.72 mm3.

Question: What about the “Mean TVol” value (HCT116 TP53 WT xenograft; day 10) of the same compound?
Answer: The value was 237.77 mm3.

Question: What about the “Mean TVol” value (HCT116 TP53 WT xenograft; day 14) of the same compound?
Answer: Its value is 208.41 mm3.

Question: What about the “Tumour volume (TVol)” value (HCT116 TP53 WT xenograft; day 14) of the same compound?
Answer: The value was 70.08 mm3 and 324.15 mm3 and 133.86 mm3 and 295.48 mm3 and 98.69 mm3 and 328.18 mm3.

Question: What about the “Mean TVol” value (HCT116 TP53 WT xenograft; day 17) of the same compound?
Answer: Its value is 206.85 mm3.

Question: And the “Tumour volume (TVol)” value (HCT116 TP53 WT xenograft; day 17)?
Answer: Its value is 71.54 mm3 and 333.55 mm3 and 123.78 mm3 and 277.24 mm3 and 67.49 mm3 and 367.52 mm3.

Question: What about the “Mean TVol” value (HCT116 TP53 WT xenograft; day 21) of the same compound?
Answer: Its value is 182.16 mm3.

Question: And the “Tumour volume (TVol)” value (HCT116 TP53 WT xenograft; day 21)?
Answer: The value was 68.28 mm3 and 318.05 mm3 and 133.60 mm3 and 239.83 mm3 and 55.74 mm3 and 277.43 mm3.

Question: What about the “Mean TVol” value (HCT116 TP53 WT xenograft; day 24) of the same compound?
Answer: The value was 152.12 mm3.

Question: What about the “Tumour volume (TVol)” value (HCT116 TP53 WT xenograft; day 24) of the same compound?
Answer: The value was 51.97 mm3 and 322.25 mm3 and 104.45 mm3 and 220.64 mm3 and 35.09 mm3 and 178.30 mm3.

Question: And the “Mean TVol” value (HCT116 TP53 WT xenograft; day 29)?
Answer: Its value is 108.49 mm3.

Question: And the “Tumour volume (TVol)” value (HCT116 TP53 WT xenograft; day 29)?
Answer: The value was 53.97 mm3 and 224.74 mm3 and 66.70 mm3 and 182.17 mm3 and 28.07 mm3 and 95.29 mm3.

Question: What about the “Mean TVol” value (HCT116 TP53 WT xenograft; day 31) of the same compound?
Answer: The value was 115.60 mm3.

Question: What about the “Tumour volume (TVol)” value (HCT116 TP53 WT xenograft; day 31) of the same compound?
Answer: The value was 67.20 mm3 and 248.87 mm3 and 79.67 mm3 and 165.88 mm3 and 35.96 mm3 and 96.04 mm3.

Question: What about the “Mean TVol” value (HCT116 TP53 WT xenograft; day 35) of the same compound?
Answer: The value was 82.07 mm3.

Question: What about the “Tumour volume (TVol)” value (HCT116 TP53 WT xenograft; day 35) of the same compound?
Answer: Its value is 74.11 mm3 and 171.12 mm3 and 62.35 mm3 and 120.74 mm3 and 20.08 mm3 and 43.99 mm3.

Question: And the “Mean TVol” value (HCT116 TP53 WT xenograft; day 38)?
Answer: Its value is 85.39 mm3.

Question: What about the “Tumour volume (TVol)” value (HCT116 TP53 WT xenograft; day 38) of the same compound?
Answer: The value was 95.75 mm3 and 187.18 mm3 and 54.75 mm3 and 135.21 mm3 and 15.88 mm3 and 23.55 mm3.

Question: What about the “Mean TVol” value (HCT116 TP53 WT xenograft; day 42) of the same compound?
Answer: Its value is 74.87 mm3.

Question: What about the “Tumour volume (TVol)” value (HCT116 TP53 WT xenograft; day 42) of the same compound?
Answer: Its value is 111.35 mm3 and 127.20 mm3 and 44.64 mm3 and 140.38 mm3 and 12.27 mm3 and 13.40 mm3.

Question: What about the “Mean TVol” value (HCT116 TP53 WT xenograft; day 45) of the same compound?
Answer: The value was 100.30 mm3.

Question: What about the “Tumour volume (TVol)” value (HCT116 TP53 WT xenograft; day 45) of the same compound?
Answer: The value was 197.14 mm3 and 123.97 mm3 and 48.50 mm3 and 218.58 mm3 and 10.09 mm3 and 3.53 mm3.

Question: And the “Mean TVol” value (HCT116 TP53 WT xenograft; day 49)?
Answer: Its value is 121.82 mm3.

Question: And the “Tumour volume (TVol)” value (HCT116 TP53 WT xenograft; day 49)?
Answer: The value was 316.70 mm3 and 100.63 mm3 and 72.22 mm3 and 229.46 mm3 and 10.59 mm3 and 1.31 mm3.

Question: And the “Mean TVol” value (HCT116 TP53 WT xenograft; day 53)?
Answer: The value was 194.25 mm3.

Question: What about the “Tumour volume (TVol)” value (HCT116 TP53 WT xenograft; day 53) of the same compound?
Answer: Its value is 483.74 mm3 and 180.66 mm3 and 93.29 mm3 and 393.80 mm3 and 13.76 mm3 and 0.25 mm3.

Question: And the “Mean TVol” value (HCT116 TP53 WT xenograft; day 56)?
Answer: The value was 269.54 mm3.

Question: What about the “Tumour volume (TVol)” value (HCT116 TP53 WT xenograft; day 56) of the same compound?
Answer: Its value is 671.24 mm3 and 160.85 mm3 and 148.76 mm3 and 618.00 mm3 and 18.36 mm3 and 0.00 mm3.

Question: What about the “Mean TVol” value (HCT116 TP53 WT xenograft; day 60) of the same compound?
Answer: Its value is 408.84 mm3.

Question: And the “Tumour volume (TVol)” value (HCT116 TP53 WT xenograft; day 60)?
Answer: The value was 1070.44 mm3 and 236.23 mm3 and 249.04 mm3 and 872.91 mm3 and 24.42 mm3 and 0.00 mm3.

Question: And the Best average response (SNU407 xenograft)?
Answer: The Best average response was -40.

Question: And the GI50 (SNU407)?
Answer: Its GI50 is 440 nM.

Question: What about the GI50 (TOV21G [2]) of the same compound?
Answer: Its GI50 is no less than 10000 nM.
